Test results reported in PMC5363373, “Zirconium tetraazamacrocycle complexes display extraordinary stability and provide a new strategy for zirconium-89-based radiopharmaceutical development” (Chemical Science, 2016).

Columns and labels:
[1] = In vitro serum stability (radio-ITLC); assay type: in vitro ADME; conditions: 37 C, after 7 days
Method in brief: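 89Zr-labeled complexes (70 μCi, 2.59 MBq) incubated in human serum at 37 °C for 7 days (n=4). Analyzed daily by radio-ITLC on ITLC-SA strips with 0.1 M EDTA (pH 5) mobile phase and gamma counting; SEC in PBS after 7 days.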

[2] = In vitro EDTA challenge study; assay type: physicochemical
Method in brief: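 Each 89Zr-labeled complex incubated at 37 °C for up to 7 days with EDTA (10, 50 or 100 mM; pH 5 or 7) at 1:100, 1:500 and 1:1000 ligand/EDTA ratios, n=4. Intact fraction sampled from 30 min to 7 d by radio-TLC (0.1 M EDTA pH 5 mobile phase) and gamma counting.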

[3] = In vitro metal competition study; assay type: physicochemical; conditions: PBS pH 7.4, 37 C
Method in brief: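 Each 89Zr-labeled complex (0.1 mM stock) in PBS, pH 7.4, was mixed with 1 mM solutions of Fe(III), Co(II), Zn(II), Cu(II), Mg(II), Ga(III) or Gd(III) salts. Mixtures were incubated at 37 °C for 7 days. 89Zr release was tracked by radio-TLC at 2 h, 1 d, 4 d and 7 d, in triplicate.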

[4] = Biodistribution studies; assay type: in vivo, female NIH Swiss mice; conditions: mice
Method in brief: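 Female NIH Swiss mice (6-8 wk, n=6) received 89Zr-labeled complex, 0.55 MBq (15 μCi)/mouse i.v. via tail vein; organs excised at 2, 4, 24, 48, 72 h, weighed and gamma-counted. %ID/g and %ID/organ derived against a weighed, counted standard; mean±SD, two-tailed unpaired t test.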

[5] = intravenous, 72 h post-injection

SMILES: CC(=O)N1CCCCCNC(=O)CCC(=O)N2CCCCCNC(=O)CCC(=O)N(CCCCCN)[O][89Zr+]([O]1)[O]2 [89Zr-DFO, reference compound]
- Radio-ITLC peak of complex in human serum [1]: 100%
- % Intact of 89Zr-complexes ([2]; EDTA 100-fold, pH 5.0, 37 C, 30 min): 93.0 ± 0.7%
- % Intact of 89Zr-complexes ([2]; EDTA 100-fold, pH 5.0, 37 C, 1 h): 85.5 ± 0.9%
- % Intact of 89Zr-complexes ([2]; EDTA 100-fold, pH 5.0, 37 C, 3 h): 59.6 ± 0.8%
- % Intact of 89Zr-complexes ([2]; EDTA 100-fold, pH 5.0, 37 C, 6 h): 29.4 ± 0.7%
- % Intact of 89Zr-complexes ([2]; EDTA 100-fold, pH 5.0, 37 C, 1 d): 6.6 ± 0.3%
- % Intact of 89Zr-complexes ([2]; EDTA 100-fold, pH 5.0, 37 C, 3 d): 5.4 ± 0.3%
- % Intact of 89Zr-complexes ([2]; EDTA 100-fold, pH 5.0, 37 C, 5 d): 4.4 ± 0.2%
- % Intact of 89Zr-complexes ([2]; EDTA 100-fold, pH 5.0, 37 C, 7 d): 3.6 ± 0.1%
- % Intact of 89Zr-complexes ([2]; EDTA 100-fold, pH 7.0, 37 C, 30 min): 99.0 ± 0.4%
- % Intact of 89Zr-complexes ([2]; EDTA 100-fold, pH 7.0, 37 C, 1 h): 96.6 ± 1.1%
- % Intact of 89Zr-complexes ([2]; EDTA 100-fold, pH 7.0, 37 C, 3 h): 90.3 ± 0.8%
- % Intact of 89Zr-complexes ([2]; EDTA 100-fold, pH 7.0, 37 C, 6 h): 89.4 ± 0.2%
- % Intact of 89Zr-complexes ([2]; EDTA 100-fold, pH 7.0, 37 C, 1 d): 88.6 ± 0.2%
- % Intact of 89Zr-complexes ([2]; EDTA 100-fold, pH 7.0, 37 C, 3 d): 87.2 ± 0.6%
- % Intact of 89Zr-complexes ([2]; EDTA 100-fold, pH 7.0, 37 C, 5 d): 86.6 ± 0.3%
- % Intact of 89Zr-complexes ([2]; EDTA 100-fold, pH 7.0, 37 C, 7 d): 83.9 ± 0.5%
- % Intact of 89Zr-complexes ([2]; EDTA 500-fold, pH 5.0, 37 C, 30 min): 60.9 ± 1.0%
- % Intact of 89Zr-complexes ([2]; EDTA 500-fold, pH 5.0, 37 C, 1 h): 33.9 ± 1.2%
- % Intact of 89Zr-complexes ([2]; EDTA 500-fold, pH 5.0, 37 C, 3 h): 3.9 ± 0.4%
- % Intact of 89Zr-complexes ([2]; EDTA 500-fold, pH 5.0, 37 C, 6 h): 0%
- % Intact of 89Zr-complexes ([2]; EDTA 500-fold, pH 7.0, 37 C, 30 min): 90.3 ± 0.7%
- % Intact of 89Zr-complexes ([2]; EDTA 500-fold, pH 7.0, 37 C, 1 h): 81.1 ± 1.1%
- % Intact of 89Zr-complexes ([2]; EDTA 500-fold, pH 7.0, 37 C, 3 h): 58.6 ± 0.3%
- % Intact of 89Zr-complexes ([2]; EDTA 500-fold, pH 7.0, 37 C, 6 h): 42.7 ± 1.2%
- % Intact of 89Zr-complexes ([2]; EDTA 500-fold, pH 7.0, 37 C, 1 d): 36.2 ± 0.7%
- % Intact of 89Zr-complexes ([2]; EDTA 500-fold, pH 7.0, 37 C, 3 d): 31.8 ± 1.1%
- % Intact of 89Zr-complexes ([2]; EDTA 500-fold, pH 7.0, 37 C, 5 d): 30.4 ± 0.9%
- % Intact of 89Zr-complexes ([2]; EDTA 500-fold, pH 7.0, 37 C, 7 d): 28.5 ± 0.4%
- % Intact of 89Zr-complexes ([2]; EDTA 1000-fold, pH 5.0, 37 C, 30 min): 37.7 ± 1.1%
- % Intact of 89Zr-complexes ([2]; EDTA 1000-fold, pH 5.0, 37 C, 1 h): 14.6 ± 0.7%
- % Intact of 89Zr-complexes ([2]; EDTA 1000-fold, pH 5.0, 37 C, 3 h): 0%
- % Intact of 89Zr-complexes ([2]; EDTA 1000-fold, pH 7.0, 37 C, 30 min): 85.6 ± 1.1%
- % Intact of 89Zr-complexes ([2]; EDTA 1000-fold, pH 7.0, 37 C, 1 h): 68.3 ± 1.2%
- % Intact of 89Zr-complexes ([2]; EDTA 1000-fold, pH 7.0, 37 C, 3 h): 45.4 ± 0.7%
- % Intact of 89Zr-complexes ([2]; EDTA 1000-fold, pH 7.0, 37 C, 6 h): 32.9 ± 0.5%
- % Intact of 89Zr-complexes ([2]; EDTA 1000-fold, pH 7.0, 37 C, 1 d): 28.1 ± 0.7%
- % Intact of 89Zr-complexes ([2]; EDTA 1000-fold, pH 7.0, 37 C, 3 d): 24.5 ± 0.8%
- % Intact of 89Zr-complexes ([2]; EDTA 1000-fold, pH 7.0, 37 C, 5 d): 21.4 ± 1.2%
- % Intact of 89Zr-complexes ([2]; EDTA 1000-fold, pH 7.0, 37 C, 7 d): 20.3 ± 0.5%
- Loss of metal ions in EDTA challenge ([2]; after 3 h incubation, 1000-fold excess of EDTA at pH 5): completely lost metal ions
- % Intact of 89Zr-complexes ([3]; Co2+, 2 h): 99.2 ± 0.2%
- % Intact of 89Zr-complexes ([3]; Co2+, 1 d): 98.3 ± 0.4%
- % Intact of 89Zr-complexes ([3]; Co2+, 4 d): 98.1 ± 0.3%
- % Intact of 89Zr-complexes ([3]; Co2+, 7 d): 95.4 ± 0.9%
- % Intact of 89Zr-complexes ([3]; Cu2+, 2 h): 98.9 ± 0.5%
- % Intact of 89Zr-complexes ([3]; Cu2+, 1 d): 98.6 ± 0.4%
- % Intact of 89Zr-complexes ([3]; Cu2+, 4 d): 97.3 ± 0.7%
- % Intact of 89Zr-complexes ([3]; Cu2+, 7 d): 96.0 ± 1.0%
- % Intact of 89Zr-complexes ([3]; Fe3+, 2 h): 96.5 ± 0.2%
- % Intact of 89Zr-complexes ([3]; Fe3+, 1 d): 76.1 ± 1.3%
- % Intact of 89Zr-complexes ([3]; Fe3+, 4 d): 53.2 ± 3.8%
- % Intact of 89Zr-complexes ([3]; Fe3+, 7 d): 33.9 ± 1.5%
- % Intact of 89Zr-complexes ([3]; Fe3+, 7 d, listed as 89Zr–DFO): 33.9%
- % Intact of 89Zr-complexes ([3]; Ga3+, 2 h): 99.3 ± 0.2%
- % Intact of 89Zr-complexes ([3]; Ga3+, 1 d): 93.4 ± 2.6%
- % Intact of 89Zr-complexes ([3]; Ga3+, 4 d): 81.1 ± 0.5%
- % Intact of 89Zr-complexes ([3]; Ga3+, 7 d): 72.6 ± 1.3%
- % Intact of 89Zr-complexes ([3]; Ga3+, 7 d, listed as 89Zr–DFO): 72.6%
- % Intact of 89Zr-complexes ([3]; Gd3+, 2 h): 99.4 ± 0.3%
- % Intact of 89Zr-complexes ([3]; Gd3+, 1 d): 98.8 ± 0.1%
- % Intact of 89Zr-complexes ([3]; Gd3+, 4 d): 98.4 ± 0.3%
- % Intact of 89Zr-complexes ([3]; Gd3+, 7 d): 96.8 ± 0.2%
- % Intact of 89Zr-complexes ([3]; Mg2+, 2 h): 99.3 ± 0.1%
- % Intact of 89Zr-complexes ([3]; Mg2+, 1 d): 98.6 ± 0.5%
- % Intact of 89Zr-complexes ([3]; Mg2+, 4 d): 97.6 ± 0.8%
- % Intact of 89Zr-complexes ([3]; Mg2+, 7 d): 96.8 ± 1.2%
- % Intact of 89Zr-complexes ([3]; Zn2+, 2 h): 99.5 ± 0.1%
- % Intact of 89Zr-complexes ([3]; Zn2+, 1 d): 98.8 ± 0.3%
- % Intact of 89Zr-complexes ([3]; Zn2+, 4 d): 97.7 ± 0.6%
- % Intact of 89Zr-complexes ([3]; Zn2+, 7 d): 95.9 ± 0.7%
- Radioactivity in blood [4, 5]: 0.0003 ± 0.0005 % ID per g
- Radioactivity in bone [4, 5]: 0.079 ± 0.014 % ID per g
- Radioactivity in kidney [4, 5]: 0.69 ± 0.098 % ID per g
- Radioactivity in liver [4, 5]: 0.066 ± 0.009 % ID per g
- Radioactivity retention in bone tissue over time ([4]; time points up to 72 h): increases over time
